Laboratory results: paper PMC10408569, “Recruitment of hexahydroquinoline as anticancer scaffold targeting inhibition of wild and mutants EGFR (EGFR^WT, EGFR^T790M, and EGFR^L858R)” (Journal of Enzyme Inhibition and Medicinal Chemistry, 2023)

What was measured:
SNB-19 = test: NCI-60 anticancer screening (SRB); format: cell-based; settings: Homo sapiens; SNB-19, CNS cancer; one dose 10 μM; read-out: Growth Inhibition Percentage (GI %)
K-562 = test: NCI-60 anticancer screening (SRB); format: cell-based; settings: Homo sapiens, K562; K-562, leukemia; one dose 10 μM; read-out: Growth Inhibition Percentage (GI %)
U251 = test: NCI-60 anticancer screening (SRB); format: cell-based; settings: Homo sapiens, U-251; U251, CNS cancer; one dose 10 μM; read-out: Growth Inhibition Percentage (GI %)
SF-268 = test: NCI-60 anticancer screening (SRB); format: cell-based; settings: Homo sapiens; SF-268, CNS cancer; one dose 10 μM; read-out: Growth Inhibition Percentage (GI %)
HOP-92 = test: NCI-60 anticancer screening (SRB); format: cell-based; settings: Homo sapiens; HOP-92, NSC lung cancer; one dose 10 μM; read-out: Growth Inhibition Percentage (GI %)
DU-145 = test: NCI-60 anticancer screening (SRB); format: cell-based; settings: Homo sapiens; DU-145, prostate cancer; one dose 10 μM; read-out: Growth Inhibition Percentage (GI %)
MALME-3M = test: NCI-60 anticancer screening (SRB); format: cell-based; settings: Homo sapiens, melanoma, one dose 10 μM, read-out: Growth Inhibition Percentage (GI %)
NCI-H460 = test: NCI-60 anticancer screening (SRB); format: cell-based; settings: Homo sapiens; NCI-H460, NSC lung cancer; one dose 10 μM; read-out: Growth Inhibition Percentage (GI %)
SF-539 = test: NCI-60 anticancer screening (SRB); format: cell-based; settings: Homo sapiens; SF-539, CNS cancer; one dose 10 μM; read-out: Growth Inhibition Percentage (GI %)
EKVX = test: NCI-60 anticancer screening (SRB); format: cell-based; settings: Homo sapiens, NSC lung cancer, one dose 10 μM, read-out: Growth Inhibition Percentage (GI %)
SR = test: NCI-60 anticancer screening (SRB); format: cell-based; settings: Homo sapiens, leukemia, one dose 10 μM, read-out: Growth Inhibition Percentage (GI %)
OVCAR-5 = test: NCI-60 anticancer screening (SRB); format: cell-based; settings: Homo sapiens; OVCAR-5, ovarian cancer; one dose 10 μM; read-out: Growth Inhibition Percentage (GI %)
NCI-H522 = test: NCI-60 anticancer screening (SRB); format: cell-based; settings: Homo sapiens; NCI-H522, NSC lung cancer; one dose 10 μM; read-out: Growth Inhibition Percentage (GI %)
SF-295 = test: NCI-60 anticancer screening (SRB); format: cell-based; settings: Homo sapiens; SF-295, CNS cancer; one dose 10 μM; read-out: Growth Inhibition Percentage (GI %)
A498 = test: NCI-60 anticancer screening (SRB); format: cell-based; settings: Homo sapiens; A498, renal cancer; one dose 10 μM; read-out: Growth Inhibition Percentage (GI %)
SNB-75 = test: NCI-60 anticancer screening (SRB); format: cell-based; settings: Homo sapiens; SNB-75, CNS cancer; one dose 10 μM; read-out: Growth Inhibition Percentage (GI %)
HT29 = test: NCI-60 anticancer screening (SRB); format: cell-based; settings: Homo sapiens, HT-29; HT29, colon cancer; one dose 10 μM; read-out: Growth Inhibition Percentage (GI %)
NCI-H226 = test: NCI-60 anticancer screening (SRB); format: cell-based; settings: Homo sapiens; NCI-H226, NSC lung cancer; one dose 10 μM; read-out: Growth Inhibition Percentage (GI %)
HCT-116 = test: NCI-60 anticancer screening (SRB); format: cell-based; settings: Homo sapiens; HCT-116, colon cancer; one dose 10 μM; read-out: Growth Inhibition Percentage (GI %)
UACC-257 = test: NCI-60 anticancer screening (SRB); format: cell-based; settings: Homo sapiens; UACC-257, melanoma; one dose 10 μM; read-out: Growth Inhibition Percentage (GI %)
LOX IMVI = test: NCI-60 anticancer screening (SRB); format: cell-based; settings: Homo sapiens, melanoma, one dose 10 μM, read-out: Growth Inhibition Percentage (GI %)
SK-MEL-5 = test: NCI-60 anticancer screening (SRB); format: cell-based; settings: Homo sapiens; SK-MEL-5, melanoma; one dose 10 μM; read-out: Growth Inhibition Percentage (GI %)
IGROV1 = test: NCI-60 anticancer screening (SRB); format: cell-based; settings: Homo sapiens, IGROV-1; IGROV1, ovarian cancer; one dose 10 μM; read-out: Growth Inhibition Percentage (GI %)
SK-MEL-2 = test: NCI-60 anticancer screening (SRB); format: cell-based; settings: Homo sapiens; SK-MEL-2, melanoma; one dose 10 μM; read-out: Growth Inhibition Percentage (GI %)
HOP-62 = test: NCI-60 anticancer screening (SRB); format: cell-based; settings: Homo sapiens; HOP-62, NSC lung cancer; one dose 10 μM; read-out: Growth Inhibition Percentage (GI %)
CAKI-1 = test: NCI-60 anticancer screening (SRB); format: cell-based; settings: Homo sapiens; CAKI-1, renal cancer; one dose 10 μM; read-out: Growth Inhibition Percentage (GI %)
SN 12C = test: NCI-60 anticancer screening (SRB); format: cell-based; settings: Homo sapiens, SN12C; SN 12C, renal cancer; one dose 10 μM; read-out: Growth Inhibition Percentage (GI %)
RPMI-8226 = test: NCI-60 anticancer screening (SRB); format: cell-based; settings: Homo sapiens; RPMI-8226, leukemia; one dose 10 μM; read-out: Growth Inhibition Percentage (GI %)
ACHN = test: NCI-60 anticancer screening (SRB); format: cell-based; settings: Homo sapiens, renal cancer, one dose 10 μM, read-out: Growth Inhibition Percentage (GI %)
M14 = test: NCI-60 anticancer screening (SRB); format: cell-based; settings: Homo sapiens; M14, melanoma; one dose 10 μM; read-out: Growth Inhibition Percentage (GI %)
T-47D = test: NCI-60 anticancer screening (SRB); format: cell-based; settings: Homo sapiens, T47D, breast cancer, one dose 10 μM, read-out: Growth Inhibition Percentage (GI %)
786-0 = test: NCI-60 anticancer screening (SRB); format: cell-based; settings: Homo sapiens; 786-0, renal cancer; one dose 10 μM; read-out: Growth Inhibition Percentage (GI %)

| Structure (SMILES) | inhibition at 10 µM (SNB-19) [%] | inhibition at 10 µM (K-562) [%] | inhibition at 10 µM (U251) [%] | inhibition at 10 µM (SF-268) [%] | inhibition at 10 µM (HOP-92) [%] | inhibition at 10 µM (DU-145) [%] | inhibition at 10 µM (MALME-3M) [%] | inhibition at 10 µM (NCI-H460) [%] | inhibition at 10 µM (SF-539) [%] | inhibition at 10 µM (EKVX) [%] | inhibition at 10 µM (SR) [%] | inhibition at 10 µM (OVCAR-5) [%] | inhibition at 10 µM (NCI-H522) [%] | inhibition at 10 µM (SF-295) [%] | inhibition at 10 µM (A498) [%] | inhibition at 10 µM (SNB-75) [%] | inhibition at 10 µM (HT29) [%] | inhibition at 10 µM (NCI-H226) [%] | inhibition at 10 µM (HCT-116) [%] | inhibition at 10 µM (UACC-257) [%] | further results |
| --- | --- | --- | --- | --- | --- | --- | --- | --- | --- | --- | --- | --- | --- | --- | --- | --- | --- | --- | --- | --- | --- |
| CCOC(=O)C1=C(N)N(c2ccc(C)cc2)C2=C(C(=O)CC(C)(C)C2)C1c1ccccc1Br (racemic) [6e, (±)-Ethyl 2-amino-4–(2-bromophenyl)-7,7-dimethyl-1–(4-methylphenyl)-5-oxo-1,4,5,6,7,8-hexahydroquinoline-3-carboxylate] | 13 | 50 | 19 | < 10 | 28 | < 10 | < 10 | 46 | < 10 | < 10 | 34 | < 10 | 32 | < 10 | < 10 | 13 | 37 | 15 | 60 | 16 | inhibition at 10 µM (LOX IMVI): 11%; inhibition at 10 µM (SK-MEL-5): 23%; inhibition at 10 µM (IGROV1): < 10%; inhibition at 10 µM (SK-MEL-2): 15%; inhibition at 10 µM (HOP-62): < 10%; inhibition at 10 µM (CAKI-1): 30%; inhibition at 10 µM (SN 12C): 15%; inhibition at 10 µM (RPMI-8226): 64%; inhibition at 10 µM (ACHN): 14%; inhibition at 10 µM (M14): 17%; melting point: 236 to 238 °C; inhibition at 10 µM (T-47D): 30%; inhibition at 10 µM (786-0): 17% |
| CCOC(=O)C1=C(N)N(c2ccc(C)cc2)C2=C(C(=O)CC(C)(C)C2)C1c1ccc(Cl)cc1 (racemic) [8d, (±)-Ethyl 2-amino-4–(4-chlorophenyl)-7,7-dimethyl-1–(4-methylphenyl)-5-oxo-1,4,5,6,7,8-hexahydroquinoline-3-carboxylate] | < 10 | < 10 | < 10 | < 10 | < 10 | < 10 | < 10 | 21 | < 10 | 15 | < 10 | < 10 | 15 | < 10 | < 10 | 35 | 33 | < 10 | 14 | < 10 | inhibition at 10 µM (LOX IMVI): < 10%; inhibition at 10 µM (SK-MEL-5): 16%; inhibition at 10 µM (IGROV1): < 10%; inhibition at 10 µM (SK-MEL-2): < 10%; inhibition at 10 µM (HOP-62): < 10%; inhibition at 10 µM (CAKI-1): 30%; inhibition at 10 µM (SN 12C): < 10%; inhibition at 10 µM (RPMI-8226): < 10%; inhibition at 10 µM (ACHN): < 10%; inhibition at 10 µM (M14): < 10%; melting point: 205 to 207 °C; inhibition at 10 µM (T-47D): 16%; inhibition at 10 µM (786-0): < 10% |
| CCOC(=O)C1=C(N)N(c2ccccc2)C2=C(C(=O)CC(C)(C)C2)C1c1cccc(Cl)c1Cl (racemic) [10a, (±)-Ethyl 2-amino-4–(2,3-dichlorophenyl)-7,7-dimethyl-5-oxo-1-phenyl-1,4,5,6,7,8-hexahydroquinoline-3-carboxylate] | 58 | 40 | 45 | 34 | 101 | 19 | 19 | 39 | 67 | 42 | 44 | 12 | 25 | 46 | < 10 | 43 | 27 | 60 | 60 | 15 | inhibition at 10 µM (LOX IMVI): 22%; inhibition at 10 µM (SK-MEL-5): 22%; inhibition at 10 µM (IGROV1): 16%; inhibition at 10 µM (SK-MEL-2): 41%; inhibition at 10 µM (HOP-62): 59%; inhibition at 10 µM (CAKI-1): 53%; inhibition at 10 µM (SN 12C): 37%; inhibition at 10 µM (RPMI-8226): 49%; inhibition at 10 µM (ACHN): 42%; inhibition at 10 µM (M14): 12%; melting point: 235 to 237 °C; inhibition at 10 µM (T-47D): 28%; inhibition at 10 µM (786-0): 42% |
